Assays:
[1] = system: acetic acid-induced writhing responses; assay: acetic acid writhing test (abdominal irritant test), Example 10; assay type: in vivo, C57/B16 mice
Experimental: This example compares the antinociception (animal equivalent of analgesia) produced by the oral administration of 5-hydroxy-7-methyloxindole vs. acetaminophen. Initial studies were performed using 10% DMSO/Cremophor™ as the vehicle. To enable a comparison with other datasets, 5-hydroxy-7-methyloxindole was subsequently tested using 6% Tween 20® reagent as the vehicle.
Male C57/B16 mice (Taconic), 8 weeks of age, were used in this study. The mice were received at Drexel University at least one week prior to testing and housed in standard polycarbonate cages with filter tops. Experiments were done in accordance with the guidelines of the National Institutes of Health and with the guidelines of the Committee for Research and Ethical Issues of IASP and were approved by the Animal Care and Use Committee of Drexel University College of Medicine. Four to five animals were housed per cage and food and water were provided ad libitum. Prior to initiation of the study, the animals were examined to assure adequate health and suitability. Mice were maintained on a 12/12 light/dark cycle and room temperature was maintained between 20 and 23° C. with a relative humidity maintained between 30% and 70%.
Compounds were administered orally 10 mL/kg, with a 30 minute pretreatment time. All compounds were tested in naïve animals. […] Each compound was dissolved in DMSO as a stock solution and mixed with Cremophor™ (1:1 v/v) before testing. The mixed solutions were diluted 1:4 with sterile water (the final concentration of DMSO/Cremophor™ reagent was 10%) immediately before administration to maximize the amount of compound in solution and improve the uniformity of any compound substance remaining in suspension. It is possible that some of the drug was in suspension at the time of administration. Each compound was initially tested in 5 mice at a dose of 300 mg/kg in the writhing test to assess their ability to alleviate abdominal pain. Based on the results of the initial test, the dose-response relationship for each active compound was determined by measuring the level of analgesia produced by at least 3 escalating doses of the test compound. The measurement of inhibition of writhing for acetaminophen and 5-hydroxy-7-methyloxindole were repeated using 6% Tween® 20 reagent as the vehicle. In this case, both compounds were clearly in suspension when administered to the animals.
A modified version of the standard abdominal irritant test was used to assess analgesia. Mice were habituated for 1 h in a transparent test box (5×5×10 inches) before any injections. Vehicle or test compound was administered p.o. (per os) 30 min prior to an intraperitoneal (i.p.) injection of 0.6% acetic acid (10 mL/kg) and the number of writhing responses (stretching of the hind limbs accompanied by a contraction of the abdominal muscles) to the acetic acid injection were counted over the subsequent 30 min period. The mice from each cage were randomly assigned to the dosing groups and the mice from each group were injected in a random order.
The one-way ANOVA was used to determine significant difference from the vehicle control treated animal. Dose response data for 5-hydroxy-7-methyloxindole was fit by non-linear regression analysis to a logit model to provide an estimate of ED50.

COX2 (h) = biological target: T1, COX2 (h) (Homo sapiens, UniProt P35354); assay: COX2 enzyme assay; assay type: biochemical
T1 construct: host or cells: Sf9 cells
T1 sequence (P35354 18-604): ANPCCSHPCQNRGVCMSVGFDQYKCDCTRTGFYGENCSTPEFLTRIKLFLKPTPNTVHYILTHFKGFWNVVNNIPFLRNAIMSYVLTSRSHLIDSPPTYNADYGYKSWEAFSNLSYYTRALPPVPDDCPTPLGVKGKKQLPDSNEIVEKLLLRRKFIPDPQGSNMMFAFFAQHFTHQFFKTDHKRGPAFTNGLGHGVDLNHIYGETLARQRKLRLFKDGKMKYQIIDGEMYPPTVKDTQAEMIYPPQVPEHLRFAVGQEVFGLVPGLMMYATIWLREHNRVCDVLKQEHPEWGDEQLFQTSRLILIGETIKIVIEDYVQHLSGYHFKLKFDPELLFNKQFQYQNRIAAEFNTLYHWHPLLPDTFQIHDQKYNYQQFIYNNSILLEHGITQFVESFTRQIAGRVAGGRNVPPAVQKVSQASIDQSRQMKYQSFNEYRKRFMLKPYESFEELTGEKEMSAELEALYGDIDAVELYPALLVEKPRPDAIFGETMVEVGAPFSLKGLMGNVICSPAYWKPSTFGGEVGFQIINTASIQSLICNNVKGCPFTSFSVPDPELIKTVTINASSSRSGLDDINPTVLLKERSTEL
Experimental: The assay was performed according to the procedure described in Glaser, European Journal of Pharmacology, 281:107-111, 1995, which is incorporated by reference. Recombinant enzymes were reconstituted in buffer. The enzyme preparations were preincubated with DMSO vehicle or compounds in DMSO for 5 min at 37° C. and the human recombinant enzyme expressed in Sf9 cells.
An inhibition greater than about 50% represented significant effects of the test compound. An inhibition of about 25% to about 50% was indicative of weak to moderate effects. An inhibition less than about 25% are not considered significant and may be primarily attributable to variability of the signal around the control level.

Cc1cc(O)cc2c1NC(=O)C2 [5-hydroxy-7-methyloxindole, 5-Hydroxy-7-methyloxindole]
inhibition of acetic acid-induced response (writhing) ([1]; C57/B16 mice, p.o. 30 min before i.p. 0.6% acetic acid, 10% DMSO/Cremophor vehicle, 30 to 300 mg/kg, FIG. 2, 3): robust and dose-related inhibition
inhibition of acetic acid-induced response (writhing) ([1]; C57/B16 mice, p.o., 6% Tween 20 vehicle (suspension), 100 and 300 mg/kg, FIG. 5, 6): the highest dose produced an effect comparable to that observed with the DMSO/Cremophor™ vehicle
ED50 ([1]; Mus musculus, po, C57/B16 mice, p.o., 10% DMSO/Cremophor vehicle, FIG. 4, read-out: ED50 (logit model fit of dose-response)): 76 mg/kg
oral antinociceptive (analgesic) effect compared with acetaminophen ([1]; mouse model, oral, summary statement): equal to, and was slightly more potent than, acetaminophen
binding to COX2 receptor, in words (COX2 (h)): binds minimally, if at all
inhibition at 10 µM (COX2 (h); test concentration 1 × 10^−5 M, human recombinant enzyme expressed in Sf9 cells): -6.8%

— patent publication US10537552B2, “Substituted 5-hydroxyoxindoles and their use as analgesics and fever reducers” (CARAFE DRUG INNOVATION, LLC, priority 2015, dated 2020)
